Reference: US20180110762A1, “Compositions Methods for Treating Chronic Kidney Disease” (Merck Sharp & Dohme Corp, priority 2015, published 2018)

Assays:
human podocytes = assay: Oris cell migration assay, PAN-induced podocyte motility, vitronectin coated plate; assay type: cell-based; settings: 48 h; for % migrated cells vs control cells: VN plate
Description: The effects of Compound A on podocyte motility were evaluated using Oris cell migration assay kit in 96-well plates (coated with either vitronectin or fibronectin). The Oris™ Cell Migration Assay is designed with a unique cell seeding stopper or biocompatible gel, detection mask, and stopper tool. These unique plate designs generate highly reproducible results using a microscope, digital imaging system. 7 to 10-day differentiated human podocytes (100 ul of 50,000 cells/ml) were seeded in each well of the ORIS plate. After sitting at room temperature for about 15 minutes, the plate was placed into 37° C. incubator and podocytes were incubated with complete podocyte medium for 24 h. Stoppers from each well (keeping stoppers in 4 wells which were served as time zero control) were carefully removed, medium discarded, and fresh (10% FBS) podocyte medium added to each well. Podocytes were pretreated with Compound A (10 uM to 0.01 nM) for 2 h prior to puromycin animonucleoside (PAN, 30 ug/ml or 15 ug/ml) treatment. Podocytes were then treated with PAN in the presence or absence of Compound A at different concentrations (ranging from 10 uM to 0.01 nM) in 10% FBS medium for 48 h. Podocytes were then fixed with 4% paraformaldehyde in PBS for 30 minutes (adding 50 ul to each well). After discarding the fixative, podocytes were stained with Hoechst 33342 (stock […] working concentration at 5 uM) for 30 min. Podocytes were then washed with PBS three times. Finally, after adding 100 ul of PBS to each well, plate was sealed with a black cover and kept at 4° C. until image analysis. Images of podocyte motility were captured using Acumen eX3 (manufacturer TTP Labtech Ltd. address: Melbourn Science Park, Melbourn, Hertfordshire SG8 6EE, United Kingdom).
Effect of Compound A (“A”) on human podocyte motility was examined using Oris cell migration assay in vitronectin (VN) coated-96-well plate.

[1] = system: male obese ZSF1 rats (diabetic nephropathy model); assay: ZSF1 rat study: GFR measurement by FITC-sinistrin clearance; assay type: in vivo
Description: (§1) The effects of Compound A (“A”) on renal function, plasma triglycerides, plasma cholesterol, kidney collagen I, kidney collagen III, renal histology, glomerular filtration rate, fibrosis score, and mRNA gene expression (profibrotic genes and integrin β3) were evaluated in male obese ZSF1 rats (a hybrid F1 of Zucker diabetic fatty rat and spontaneously hypertensive heart failure rat; a diabetic nephropathy model) when administered as in-feed for 28 weeks. Sixty obese male ZSF1 rats were randomized to five groups: Obese control (n=12), Compound A 60 mpk (n=12), Compound A 200 mpk (n=12), Compound A 400 mpk (n=12), Enalapril 10 mpk (n=12); Eight lean male ZSF1 rats were used for normal control. Renal functional changes were monitored by blood and urine analysis following in-feed dosing for 28 weeks. Compound exposure was also monitored during the study.
For the measurement of GFR, a miniaturized device (NIC-Kidney, Mannheim Pharma & Diagnostics, Mannheim, Germany) was used. In brief, the device (batteries, diodes, and microprocessor) containing an optical component was affixed on a depilated region of the back using a double-sided sticky patch (Lohmann GmbH KG, 56567, Neuwied, Germany) under isofluorane anesthesia (3% isoflurane mixed with oxygen). After a resting baseline period of 1-1.5 minutes, a bolus of FITC-sinistrin (5 mg/100 g body weight, dissolved in 0.5 mL sterile isotonic saline) was injected through the tail vein. The rat was then placed in a clean cage for recovery from anesthesia to responsible ambulation. […] The excretion kinetics of FITC-sinistrin was determined using a sampling rate of 60 measurements per minute with an excitation time of 10 milliseconds per measurement for 120 minutes after the injection. One compartment model was used for FITC-sinistrin clearance. After completion of GFR measurement, the device was gently removed from the skin and the rat returned to its home cage.

[2] = system: male obese ZSF1 rats (diabetic nephropathy model); assay: ZSF1 rat study: kidney collagen I and III immunostaining; assay type: in vivo
Description: as §1
Following deparaffinization and rehydration, each kidney tissue section was processed to identify collagen I and III deposition. The primary antibodies used were rabbit anti-type I collagen polyclonal antibody (Abcam, Cambridge, Mass.) diluted at 2 ug/ml, and rabbit anti-type III collagen polyclonal antibody (Lifespan, Seattle, Wash.) at 3 ug/ml. The signal was developed by using Super PicTure HRP Polymer Rabbit Primary kit (Invitrogen) and the slides were counterstained with hematoxylin. The Aperio ScanScope XT Slide Scanner (Aperio Technologies, Vista, Calif.) system was used to capture whole slide digital images with a 20× objective. Digital images were managed using Aperio Spectrum. The positive stains were identified and quantified using a macro created from a color deconvolution algorithm (Aperio Technologies, Vista, Calif.).

[3] = obese ZSF1 rats, 200 mpk in-feed, week 28
[4] = obese ZSF1 rats, 400 mpk in-feed, week 28

- IC50 (human podocytes; Homo sapiens, vitronectin coated plates, PAN 30 ug/ml, read-out: IC50, inhibition of puromycin-induced human podocyte motility): 9.94 nM
Structure (SMILES): COc1ccc([C@H](CC(=O)O)N2CCN(CCCc3ccc4c(n3)NCCC4)C2=O)cn1 [Compound A, 3-{2-Oxo-3-[3-(5,6,7,8-tetrahydro-[1,8]naphthyridin-2-yl)-propyl]imidazolidin-1-yl}-3 (S)-(6-methoxy-pyridin-3-yl)-propionic acid]
- % migrated cells vs control cells (human podocytes; PAN 30 ug/ml + A 0.01 nM): 55.1%
- % migrated cells vs control cells (human podocytes; PAN 30 ug/ml + A 0.0316 nM): 44.0%
- % migrated cells vs control cells (human podocytes; PAN 30 ug/ml + A 0.1 nM): 43.0%
- % migrated cells vs control cells (human podocytes; PAN 30 ug/ml + A 0.316 nM): 36.6%
- % migrated cells vs control cells (human podocytes; PAN 30 ug/ml + A 1 nM): 42.1%
- % migrated cells vs control cells (human podocytes; PAN 30 ug/ml + A 3.16 nM): 31.3%
- % migrated cells vs control cells (human podocytes; PAN 30 ug/ml + A 10 nM): 28.6%
- % migrated cells vs control cells (human podocytes; PAN 30 ug/ml + A 100 nM): 19.6%
- % migrated cells vs control cells (human podocytes; PAN 30 ug/ml + A 1 uM): 16.1%
- % migrated cells vs control cells (human podocytes; PAN 30 ug/ml + A 10 uM): 16.9%
- effect on glomerular filtration rate ([1]; 60 mpk, 200 mpk and 400 mpk at weeks 28-30): no significant effect
- Glomerular Filtration Rate ([1]; ZSF-1 rats vs untreated obese ZSF-1 rats (summary)): non-statistically significant improvements in glomerular filtration rate
- Glomerular Filtration Rate ([1]; obese ZSF1 rats, 60 mpk in-feed, week 28): 609.8 ± 42.1 uLs/Min/100 gm BW
- FITC-sinistrin clearance, % change of improvement compared to Obese Vehicle group [1, 3]: 8.8%
- Glomerular Filtration Rate [1, 3]: 663.2 ± 50.6 uLs/Min/100 gm BW
- FITC-sinistrin clearance, % change of improvement compared to Obese Vehicle group [1, 4]: 14.4%
- Glomerular Filtration Rate [1, 4]: 697.5 ± 37.9 uLs/Min/100 gm BW
- effect on kidney collagen I protein levels vs Obese Vehicle ([2]; 400 mpk at week 28): significantly decreased
- effect on kidney collagen III protein levels vs Obese Vehicle ([2]; 400 mpk at week 28): significantly decreased
- kidney collagen I protein levels [2, 3]: 39.79 ± 0.82 % of area
- kidney collagen I protein levels [2, 4]: 36.45 ± 0.85 % of area
- kidney collagen III protein levels [2, 4]: 19.23 ± 0.76 % of area
